Results reported in the supplement of paper PMC11061612.

What was measured:
Assay in all cases: Bliss excess, mean over the matrix (fraction); higher = more synergy
[1] = system: MS751 (Cervical Carcinoma)
Outline: (§1)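 Bliss excess equals the observed combination effect minus the expected value EA + EB − EA·EB, where EA and EB are the effects of each agent alone. Combination Emax is the second-highest inhibition within the matrix. Inhibition was scaled from CellTiter-Glo 2.0 luminescence, with 0 set by vehicle wells and 1 by blank wells, after 72 hours of two-drug dosing of cells plated in 1536-well plates.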

[2] = system: BFTC-905 (Bladder Carcinoma)
Outline: as §1

[3] = system: PANC-08-13 (Pancreatic Carcinoma)
Outline: as §1

LN-18 (Glioblastoma) = system: LN-18 (Glioblastoma)
Outline: as §1

[4] = system: TOV-112D (Ovarian Carcinoma)
Outline: as §1

[5] = system: GR-ST (B-Lymphoblastic Leukemia)
Outline: as §1

[6] = system: HL-60 (Acute Myeloid Leukemia)
Outline: as §1

[7] = system: NCI-H1792 (Lung Adenocarcinoma)
Outline: as §1

[8] = system: KM12 (Colorectal Carcinoma)
Outline: as §1

[9] = system: DND-41 (T-Lymphoblastic Leukemia)
Outline: as §1

TC-71 (Ewing's Sarcoma) = system: TC-71 (Ewing's Sarcoma)
Outline: as §1

ES1 (Ewing's Sarcoma) = system: ES1 (Ewing's Sarcoma)
Outline: as §1

U251 (Low Grade Glioma) = system: U251 (Low Grade Glioma)
Outline: as §1

[10] = system: MOLT-16 (T-Lymphoblastic Leukemia)
Outline: as §1

[11] = system: KYSE-180 (Esophageal Squamous Cell Carcinoma)
Outline: as §1

CHP-212 (Neuroblastoma) = system: CHP-212 (Neuroblastoma)
Outline: as §1

WIL2-NS (Non-Cancerous) = system: WIL2-NS (Non-Cancerous)
Outline: as §1

[12] = system: SR (Other Blood Carcinomas)
Outline: as §1

[13] = system: K-562 (Chronic Myelogenous Leukemia)
Outline: as §1

ES8 (Ewing's Sarcoma) = system: ES8 (Ewing's Sarcoma)
Outline: as §1

Row | Compound | Bliss excess [1] | Bliss excess [2] | Bliss excess [3] | Bliss excess (LN-18 (Glioblastoma)) | Bliss excess [4] | Bliss excess [5] | Bliss excess [6] | Bliss excess [7] | Bliss excess [8] | Bliss excess [9] | Bliss excess (TC-71 (Ewing's Sarcoma)) | Bliss excess (ES1 (Ewing's Sarcoma)) | Bliss excess (U251 (Low Grade Glioma)) | Bliss excess [10] | Bliss excess [11] | Bliss excess (CHP-212 (Neuroblastoma)) | Bliss excess (WIL2-NS (Non-Cancerous)) | Bliss excess [12] | Bliss excess [13] | Bliss excess (ES8 (Ewing's Sarcoma))
1 | CN(C)CCCOc1ccc(-c2ccc3ncc4c(c3c2)n(C2CCOCC2)c(=O)n4C)cn1 [AZD0156] + C=CCn1c(=O)c2cnc(Nc3ccc(N4CCN(C)CC4)cc3)nc2n1-c1cccc(C(C)(C)O)n1 [AZD1775] (first compound max 1 µM, partner max 1 µM) | -0.0154 | -0.0022 | -0.0586 | -0.0307 | 0.0039 | -0.0229 | -0.0177 | -0.0041 | -0.0223 | -0.0029 | 0.0685 | -0.0018 | 0.005 | -0.0108 | -0.0451 | -0.0165 | 0.0135 | -0.0509 | -0.0269 | -0.0464
2 | CN(C)CCCOc1ccc(-c2ccc3ncc4c(c3c2)n(C2CCOCC2)c(=O)n4C)cn1 [AZD0156] + CCN(CCO)CCCOc1ccc2c(Nc3cc(CC(=O)Nc4cccc(F)c4)[nH]n3)ncnc2c1 [AZD2811] (first compound max 1 µM, 7x7, partner max 1 µM) | -0.0235 | 0.0116 | -0.0461 | 0.0009 | -0.0025 | 0.0033 | -0.0762 | -0.0032 | -0.0163 | 0.0072 | 0.0495 | 0.148 | 0.0131 | -0.0087 | -0.0153 | -0.0254 | -0.003 | -0.0666 | -0.0011 | -0.0153
3 | CN(C)CCCOc1ccc(-c2ccc3ncc4c(c3c2)n(C2CCOCC2)c(=O)n4C)cn1 [AZD0156] + C[C@@H]1COCCN1C2=NC(=NC(=C2)C3(CC3)[S@](=N)(=O)C)C4=C5C=CNC5=NC=C4 [AZD6738] (first compound max 1 µM, 7x7, partner max 10 µM) | -0.0221 | 0.0463 | -0.0376 | 0.0505 | 0.0136 | -0.0006 | -0.0159 | 0.0254 | 0.0161 | -0.0034 | 0.069 | 0.0554 | -0.0087 | -0.0399 | 0.0762 | -0.0047 | 0.0131 | 0.015 | -0.0079 | 0.0169
4 | CN(C)CCCOc1ccc(-c2ccc3ncc4c(c3c2)n(C2CCOCC2)c(=O)n4C)cn1 [AZD0156] + O=C(c1cc(Cc2n[nH]c(=O)c3ccccc23)ccc1F)N1CCN(C(=O)C2CC2)CC1 [Olaparib] (first compound max 3 µM, partner max 3 µM) | -0.0033 | 0.175 | -0.0215 | 0.0366 | 0.0851 | 0.131 | 0.141 | 0.0848 | 0.121 | 0.0867 | 0.3 | 0.245 | 0.0345 | 0.397 | 0.0654 | 0.222 | 0.215 | 0.194 | 0.0271 | 0.39
5 | C=CCn1c(=O)c2cnc(Nc3ccc(N4CCN(C)CC4)cc3)nc2n1-c1cccc(C(C)(C)O)n1 [AZD1775] + C1CN(CCC1(C(=O)N[C@@H](CCO)C2=CC=C(C=C2)Cl)N)C3=NC=NC4=C3C=CN4 [Capivasertib] (first compound max 3 µM, partner max 3 µM) | 0.0003 | -0.0499 | -0.0493 | 0.0196 | 0.028 | -0.0771 | 0.0265 | 0.0053 | -0.0162 | -0.0428 | 0.0131 | -0.0219 | -0.0223 | 0.0568 | -0.0066 | -0.077 | -0.0675 | 0.0013 | -0.0516 | 0.0352
6 | C=CCn1c(=O)c2cnc(Nc3ccc(N4CCN(C)CC4)cc3)nc2n1-c1cccc(C(C)(C)O)n1 [AZD1775] + C[C@@H]1COCCN1C2=NC(=NC(=C2)C3(CC3)[S@](=N)(=O)C)C4=C5C=CNC5=NC=C4 [AZD6738] (first compound max 1 µM, partner max 10 µM) | 0.0075 | 0.0665 | -0.0203 | 0.086 | 0.0714 | -0.0217 | 0.0975 | 0.0105 | 0.0228 | 0.0181 | 0.0431 | 0.0487 | 0.0604 | 0.0101 | 0.0869 | -0.0567 | 0.0269 | 0.0174 | 0.0433 | 0.0178
7 | C=CCn1c(=O)c2cnc(Nc3ccc(N4CCN(C)CC4)cc3)nc2n1-c1cccc(C(C)(C)O)n1 [AZD1775] + O=C(c1cc(Cc2n[nH]c(=O)c3ccccc23)ccc1F)N1CCN(C(=O)C2CC2)CC1 [Olaparib] (first compound max 1 µM, partner max 10 µM) | -0.0021 | -0.0292 | -0.0095 | -0.037 | -0.0139 | -0.0334 | -0.0554 | -0.0261 | -0.0201 | -0.0025 | -0.0626 | -0.0114 | -0.0154 | 0.0004 | 0.0253 | -0.0383 | -0.0087 | 0.0597 | -0.0678 | 0.0059
8 | CCN(CCO)CCCOc1ccc2c(Nc3cc(CC(=O)Nc4cccc(F)c4)[nH]n3)ncnc2c1 [AZD2811] + C=CCn1c(=O)c2cnc(Nc3ccc(N4CCN(C)CC4)cc3)nc2n1-c1cccc(C(C)(C)O)n1 [AZD1775] (first compound max 1 µM, partner max 1 µM) | 0.0461 | 0.0468 | -0.0319 | 0.0214 | 0.105 | -0.0338 | -0.0445 | -0.0328 | -0.0092 | 0.0198 | 0.0744 | 0.16 | -0.0117 | -0.0255 | 0.0089 | -0.0625 | 0.0117 | -0.0146 | 0.0526 | -0.0218
9 | CCN(CCO)CCCOc1ccc2c(Nc3cc(CC(=O)Nc4cccc(F)c4)[nH]n3)ncnc2c1 [AZD2811] + C[C@@H]1COCCN1C2=NC(=NC(=C2)C3(CC3)[S@](=N)(=O)C)C4=C5C=CNC5=NC=C4 [AZD6738] (first compound max 1 µM, 7x7, partner max 10 µM) | 0.041 | -0.0462 | -0.0312 | -0.0151 | 0.0433 | -0.0298 | -0.0776 | -0.0577 | -0.0709 | -0.018 | -0.0335 | 0.0413 | -0.0255 | -0.0021 | -0.0184 | -0.0822 | 0.0036 | -0.0533 | -0.0494 | -0.0554
10 | CN(CCO)CC[C@H](CSc1ccccc1)Nc1ccc(S(=O)(=O)NC(=O)c2ccc(N3CCC([C@@H](O)c4ccccc4-c4ccc(Cl)cc4)CC3)cc2)cc1S(=O)(=O)C(F)(F)F [AZD4320] + C[C@@H](Nc1cc(F)cc(F)c1)c1cc(C(=O)N(C)C)cc2c(=O)cc(N3CCOCC3)oc12 [AZD8186] (first compound max 1 µM, 7x7, partner max 3 µM) | 0.0982 | -0.0221 | -0.007 | 0.0608 | -0.0108 | -0.054 |  | 0.0942 | 0.0562 | 0.0338 | -0.027 | 0.0591 | -0.0013 | -0.0157 | 0.0343 | -0.072 | -0.0709 | 0.0428 | 0.0309 | 0.0142
11 | COc1nnc2ccc(N3CCC(c4ccc(OCCN5CCN(C)C(=O)[C@H]5C)cc4)CC3)nn12 [AZD5153] + CN(CC[C@H](CSC1=CC=CC=C1)NC2=C(C=C(C=C2)S(=O)(=O)NC(=O)C3=CC=C(C=C3)N4CCC(CC4)[C@H](C5=CC=CC=C5C6=CC=C(C=C6)Cl)O)S(=O)(=O)C(F)(F)F)CCO [AZD4320] (first compound max 1 µM, 7x7, partner max 1 µM) | 0.0372 |  | 0.0589 | -0.0251 | 0.0022 |  | -0.0203 |  | 0.0033 |  | -0.081 |  | 0.0547 | 0.0258 | 0.0551 | -0.0243 |  |  |  | 
12 | Cc1c2c(nn1C)CSCc1cc(n(C)n1)CSc1cc(c3ccccc3c1)OCCCc1c(C(=O)O)n(C)c3c-2c(Cl)ccc13 [AZD5991] + C[C@@H](Nc1cc(F)cc(F)c1)c1cc(C(=O)N(C)C)cc2c(=O)cc(N3CCOCC3)oc12 [AZD8186] (first compound max 1 µM, 7x7, partner max 3 µM) | 0.0705 | -0.012 | 0.0187 | 0.0079 | -0.0028 | -0.0352 |  | -0.0108 | 0.0121 | -0.0249 | 0.0276 | 0.013 | -0.0334 | -0.0154 | 0.0187 | -0.0203 | -0.0749 | -0.0278 | 0.0096 | 0.042
13 | CC(=O)c1c(C)c2cnc(Nc3ccc(N4CCNCC4)cn3)nc2n(C2CCCC2)c1=O [Palbociclib] + CN(CC[C@H](CSC1=CC=CC=C1)NC2=C(C=C(C=C2)S(=O)(=O)NC(=O)C3=CC=C(C=C3)N4CCC(CC4)[C@H](C5=CC=CC=C5C6=CC=C(C=C6)Cl)O)S(=O)(=O)C(F)(F)F)CCO [AZD4320] (first compound max 10 µM, 7x7, partner max 1 µM) | -0.0552 |  | -0.0459 | -0.0081 | -0.0002 |  | -0.102 |  | -0.0377 |  | -0.0326 |  | -0.0989 | -0.0494 | -0.0269 | -0.0366 |  |  |  | 
14 | CCc1c2c(nc3ccc(O)cc13)-c1cc3c(c(=O)n1C2)COC(=O)[C@]3(O)CC [SN-38] + O=C(c1cc(Cc2n[nH]c(=O)c3ccccc23)ccc1F)N1CCN(C(=O)C2CC2)CC1 [Olaparib] (first compound max 0.3 µM, 7x7, partner max 10 µM) | 0.053 | 0.0451 | -0.0202 |  | 0.0453 | -0.05 |  | 0.0361 | -0.0102 | 0.0343 |  | 0.0779 |  |  | 0.0458 |  | 0.0736 | 0.0614 | 0.0222 | 0.0636
15 | C[C@@H](c1ccc2nccn2c1)n1nnc2ncc(-c3cnn(C)c3)nc21 [Savolitinib] + CN(CC[C@H](CSC1=CC=CC=C1)NC2=C(C=C(C=C2)S(=O)(=O)NC(=O)C3=CC=C(C=C3)N4CCC(CC4)[C@H](C5=CC=CC=C5C6=CC=C(C=C6)Cl)O)S(=O)(=O)C(F)(F)F)CCO [AZD4320] (first compound max 1 µM, 7x7, partner max 1 µM) | 0.0315 |  | -0.0588 | -0.0406 | -0.0414 |  | -0.0536 |  | -0.0156 |  | -0.0266 |  | -0.0546 | -0.0222 | -0.0161 | -0.0613 |  |  |  | 
